Data from patent US10174005B2, “Fused pyrimidines as inhibitors of p97 complex” (Cleave Biosciences, Inc., priority 2014, dated 2019).

What was measured:
[1] = biological target: p97 (Homo sapiens, UniProt P55072); test: P97 ATPase biochemical assay (ADP Glo); details: 20 nM p97, 20 μM ATP, 37° C. for 15 minutes
Method: The ATPase assay is performed according the following protocol: Purified enzyme (20 nM p97), substrate (20 μM ATP) and a dose titration of compounds are mixed in buffer (50 mM TRIS pH 7.5, 20 mM MgCl2, 0.02% TX-100, 1 mM DTT, 0.2% (v/v) glycerol) and incubated at 37° C. for 15 minutes. The reaction is terminated and the level of product generated is measured using the ADP Glo Assay Kit (Promega, Madison Wis.). Plotting product generated versus compound concentration and using a four-parameter fit model generates an IC50 value for each compounds.
The p97 assay is an initial screening assay used to determine inhibitory activity of the fused pyrimidine compounds of the invention against the p97 complex. As discussed above, inhibition of activity of the p97 proteosome complex can enable apoptosis and cause elimination of neoplastic cells (cancer cells). The method follows that of Christianson in Nat. Cell Biol., (2011) 14:93.
Assay Buffer is a mixture of 50 mM TRIS pH 7.5, 20 mM MgCl2, 0.02% TX-100, 1 mM DTT and 0.2% (v/v) Glycerol. The well plate is Platetype: Corning 3674, 384w plate. The identification kit is an ADP glo kit (Promega): stop buffer, detection reagent.
Serial dilute compound in DMSO in a 1:3.33-fold 10 point serial dilution.
in each well of 384w plate add the following reagents:
0.5 μL compound serial diluted in DMSO (Final Conc. 10%)
2 μL ATP (Final Conc.=20 uM, diluted in assay buffer)
2.5 μL p97 (Final Conc.=20 nM, diluted in assay buffer)
Incubate at 37 deg C. for 15 min.
Add 5 μL of stop buffer, incubate at RT for 40 min.
Add 10 μL of detection reagent, incubate at RT for 30 min.
Read luminescence on Envision plate reader.
Upon obtaining the data from the luminescence reading, the data may be analyzed as follows:
Normalize luminescence data using no enzyme (full inhibition) and no compound (no inhibition) controls. Plot normalized luminescence data against log-transformed concentration values and fit to a sigmoidal curve to determine IC50 values (done in Collaborative Drug Discovery software).

[2] = system: A549 cells; test: Cultured cancer cell viability assay (cell titer glo, CTG) in A549 cells; type: cell-based; details: Homo sapiens; A549 cells, 72 hr incubation, cell titer glo; read-out: A549 CTG IC50
Description: Anti-tumor effects are monitored in cultured cancer cells after several days of compound treatment. The cell titer glo assay (Promega) measures the amount of ATP present as a proxy for cellular viability. Cellular counting is done using high-content microscopy followed by image analysis. A hanging drop 3D-culture system (3D Biomatrix) is used followed by cell titer glo to measure growth in a tumor-like environment.
The cellular assay provides information about the anti-neoplastic activity of the compounds of the invention. The compounds are tested against cultured cancer cells to determine whether or not the compounds of the invention are capable of intersecting with cancer cells to minimize or eliminate such cells. The assay involves establishing colonies of such cells and then treating them with the test compound under specified conditions and analysis regima to determine results.
(§1) Cell Plating: • Seed cells ˜16 hrs prior to compound treatment • Plate 25 μL of A549 cells in every well of 384-well plate using multidrop. • Two (2) black plates for IF at 2500 cells/well • Let plate sit at room temp for 10-15 minutes prior to putting in incubator to • allow cells to stick in middle of plate. • One (1) white plate for viability at 500 cells/well.
(§2) Day 2 Treatment of Cultured Cells with Test Compounds • Treat Cells: • Serial dilute compounds with a 10 point 2-fold serial dilution in DMSO to make 250× stock compound solution • Dilute compounds 1:125 in cell culture media to make a 2× solution Add • 25 μl of dilution compounds to cell plates in well duplicates Put cells back in incubator (6 hr incubation for black plates, 72 hr incubation for white plates).
Viability Assay: • Thaw an aliquot of frozen cell titer glo (Promega G7572) at room temperature. • Add 45 mL of NaCl/PBS solution to 5 ml of cell titer glo (10×). • Remove white plates from incubator, leave at room temp for 30 minutes. • Add 25 μl of diluted cell titer glo to each well. • Shake plate for >1 minute. • Incubate plate for >5 minutes to stabilize luminescence. • Luminescence is stable for up to 3 hours. • Read luminescence on plate reader

[3] = system: K48-Ub (lysine-48 chain linkage of poly-ubiquitin) in A549 cells; test: A549 K48-Ub accumulation, immunofluorescence high-content imaging; type: cell-based; details: Homo sapiens, 6 hr incubation
Method: Image-analysis is used to generate quantitative data from these assays that can be fit to a four-parameter sigmoid curve to derive IC50 values. Substrates of the ubiquitin-proteasome system, such as p53, are monitored after tumor cell lines are incubated with compounds for several hours. Accumulation of these proteins indicates an inhibition of proteasome-mediated degradation. Accumulation of lysine-48 chain linkage of poly-ubiquitin is also monitored by immunofluorescence as an indicator of ubiquitin-proteasome system inhibition. Both LC3 and SQSTM1 are mediators of autophagy. The localization and amounts of these proteins are monitored by immunofluorescence and report on the activity and inhibition of autophagy in response to p97 inhibition.
as §1, §2
Fix/Stain Black Plates: • Incubate cells in black plates with compound at 37 deg C. for 6 hrs. add 15 μL of 16% Paraformaldehyde (PFA) directly into media of each well, incubate at room temp for 5 min, flick plate and wash in 50 μL of PBS block in 50 μL of Blocking Buffer for 30 minutes (can go up to several hours) • Blocking buffer: 1×PBS, 1% BSA, 0.3% Triton-X 100, Hoechst (1:10,000) incubate in 25 μL of primary antibody in blocking buffer at 4 deg C. over night
Secondary Antibodies: • AlexaFluor488 Goat anti-Rabbit 1:2,000 (Life Tech A11008) • AlexaFluor555 Goat anti-Mouse 1:2.000 (Life Tech A21422)
Day 3/4 • Black Plate Staining (cont): • wash black plates 3× in 50 μL PBS (˜5 min each) incubate in 25 μl of secondary antibody (1:2,000) in blocking buffer for 1-2 hrs at room temp (alexafluor488-anti-Rabbit/alexafluor555-anti-Mouse) • wash 4× in 50 μL PBS (˜5 min each) • leave plates in PBS for imaging • clean bottom of plates with 70% EtOH
Imaging: • Image plates in high content microscope with 405 nm, 488 nm and 555 nm filters
Data Analysis: • Nuclear counts and cellular intensities of each markers are measured using Hoechst as a nuclear marker with an automated image analysis protocol using Matlab software (Math Works)

[4] = system: Caco-2 cells

Sequence of p97 (P55072 whole entry): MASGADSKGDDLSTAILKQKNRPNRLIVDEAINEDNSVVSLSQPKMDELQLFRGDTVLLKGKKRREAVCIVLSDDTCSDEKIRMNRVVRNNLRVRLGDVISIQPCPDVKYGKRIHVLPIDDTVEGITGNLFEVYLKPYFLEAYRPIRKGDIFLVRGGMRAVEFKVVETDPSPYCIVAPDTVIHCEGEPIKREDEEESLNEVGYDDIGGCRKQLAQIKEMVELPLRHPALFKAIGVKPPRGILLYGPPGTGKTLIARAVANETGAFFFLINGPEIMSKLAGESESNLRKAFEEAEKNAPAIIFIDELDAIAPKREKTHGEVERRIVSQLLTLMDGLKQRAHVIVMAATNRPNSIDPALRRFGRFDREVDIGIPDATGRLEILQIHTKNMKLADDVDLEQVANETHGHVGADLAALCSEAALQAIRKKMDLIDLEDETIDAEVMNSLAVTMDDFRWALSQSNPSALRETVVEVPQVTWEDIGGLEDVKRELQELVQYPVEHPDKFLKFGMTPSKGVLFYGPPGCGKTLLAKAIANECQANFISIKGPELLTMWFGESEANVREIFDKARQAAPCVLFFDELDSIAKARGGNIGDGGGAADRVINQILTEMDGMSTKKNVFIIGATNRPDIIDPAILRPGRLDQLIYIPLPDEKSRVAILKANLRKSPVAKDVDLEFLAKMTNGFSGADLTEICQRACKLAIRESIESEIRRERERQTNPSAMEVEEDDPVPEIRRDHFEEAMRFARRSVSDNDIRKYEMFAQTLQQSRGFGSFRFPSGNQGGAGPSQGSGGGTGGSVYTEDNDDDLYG

Structure (SMILES)	IC50 [1] [nM]	IC50 [2] [nM]	IC50 [3] [nM]	Peff A B, Range ([4]; pH 7.4 Caco-2, A to B)	Peff B A, Range ([4]; pH 7.4 Caco-2, B to A)
Cc1cc2c(C(N)=O)cccc2n1-c1nc2c(c(NCc3ccccc3)n1)CCCCC2 [FF18, 1-(4-(benzylamino)-6,7,8,9-tetrahydro-5H-cyclohepta[d]pyrimidin-2-yl)-2-methyl-1H-indole-4-carboxamide]	< 30	< 1000	< 3000		
Cc1cc2c(C(N)=O)cccc2n1-c1nc(NCc2ccccc2)c2c(n1)C(C)CNC2 (centres unmarked) [FF19, 1-(4-(benzylamino)-8-methyl-5,6,7,8-tetrahydropyrido[4,3-d]pyrimidin-2-yl)-2-methyl-1H-indole-4-carboxamide]	< 100	< 3000	< 1000		
Cc1cc2c(C(N)=O)cccc2n1-c1nc2c(c(NCc3ccccc3)n1)N(C)CCC2 [FF21, 1-(4-(benzylamino)-5-methyl-5,6,7,8-tetrahydropyrido[3,2-d]pyrimidin-2-yl)-2-methyl-1H-indole-4-carboxamide]	< 30	< 1000	< 1000		
COc1nc2c(C(N)=O)cccc2n1-c1nc2c(c(NCc3ccccc3)n1)CCCN2 [FF23, 1-(4-(benzylamino)-5,6,7,8-tetrahydropyrido[2,3-d]pyrimidin-2-yl)-2-methoxy-1H-benzo[d]imidazole-4-carboxamide]	< 30	< 3000	< 3000		
COc1nc2c(C(N)=O)cccc2n1-c1nc(NCc2ccccc2)c2c(n1)OCCC2 [FF24, 1-(4-(benzylamino)-6,7-dihydro-5H-pyrano[2,3-d]pyrimidin-2-yl)-2-methoxy-1H-benzo[d]imidazole-4-carboxamide]	< 30	< 3000	< 3000		
Cc1cc2c(C(N)=O)cccc2n1-c1nc2c(c(NCc3cccc(F)c3)n1)NCCC2 [FF25, 1-(4-((3-fluorobenzyl)amino)-5,6,7,8-tetrahydropyrido[3,2-d]pyrimidin-2-yl)-2-methyl-1H-indole-4-carboxamide]	< 30	< 3000	< 3000		
Cc1cc2c(C(N)=O)cccc2n1-c1nc2c(c(NCc3cccc(F)c3)n1)CCCN2 [FF26, 1-(4-((3-fluorobenzyl)amino)-5,6,7,8-tetrahydropyrido[2,3-d]pyrimidin-2-yl)-2-methyl-1H-indole-4-carboxamide]	< 30	< 3000	< 3000		
Cc1[nH]c2c(C(N)=O)cccc2c1-c1nc(NCc2ccccc2)c2c(n1)OCCC2 [FF27, 3-(4-(benzylamino)-6,7-dihydro-5H-pyrano[2,3-d]pyrimidin-2-yl)-2-methyl-1H-indole-7-carboxamide]	< 100	< 3000	< 3000		
NC(=O)c1cccc2c1cnn2-c1nc(NCc2ccccc2)c2c(n1)OCCC2 [FF28, 1-(4-(benzylamino)-6,7-dihydro-5H-pyrano[2,3-d]pyrimidin-2-yl)-1H-indazole-4-carboxamide]	< 100	< 3000	< 3000		
Cc1cc2c(C(N)=O)cccc2n1-c1nc(NCc2ccccc2)c2c(n1)N(C)CCC2 [FF29, 1-(4-(benzylamino)-8-methyl-5,6,7,8-tetrahydropyrido[2,3-d]pyrimidin-2-yl)-2-methyl-1H-indole-4-carboxamide]	< 30	< 3000	< 3000		
Cc1cc2c(C(N)=O)cccc2n1-c1nc(NCc2cc(F)cc(F)c2)c2c(n1)OCCC2 [FF30, 1-(4-((3,5-difluorobenzyl)amino)-6,7-dihydro-5H-pyrano[2,3-d]pyrimidin-2-yl)-2-methyl-1H-indole-4-carboxamide]	< 30	< 3000	< 3000		
NCc1cc2c(C(N)=O)cccc2n1-c1nc(NCc2ccccc2)c2c(n1)OCCC2 [FF32, 2-(aminomethyl)-1-(4-(benzylamino)-6,7-dihydro-5H-pyrano[2,3-d]pyrimidin-2-yl)-1H-indole-4-carboxamide]	< 100	< 10000	< 10000		
Cc1cc2c(C(N)=O)cccc2n1-c1nc2c(c(NCc3ccccc3)n1)NCCC2 [FF34, 1-(4-(benzylamino)-5,6,7,8-tetrahydropyrido[3,2-d]pyrimidin-2-yl)-2-methyl-1H-indole-4-carboxamide]	< 30	< 1000	< 1000		
Cc1oc2c(C(N)=O)cccc2c1-c1nc2c(c(NCc3ccccc3)n1)CCCC2 [FF35, 3-(4-(benzylamino)-5,6,7,8-tetrahydroquinazolin-2-yl)-2-methylbenzofuran-7-carboxamide]	< 30	< 3000	< 3000		
CC(C)NCC(O)COc1cccc2ccccc12 (centres unmarked) [Propranolol]				18.50-36.80 × E-6 cm/sec	16.30-31.40 × E-6 cm/sec
